Laboratory results from US20090118331A1, “Use of Lobeline Epimers in the Treatment of Central Nervous System Diseases, Pathologies, and Drug Abuse” (priority 2007, published 2009).
Where “and” joins values, the source holds several entries; their conditions need not be identical. Identical values can stand only once.

Columns and labels:
[1] = Lobeline conversion to epimer in the HEPES buffer system used at 25° C. in the [^3H]DTBZ binding study (HPLC); assay type: physicochemical; settings: [^3H]DTBZ binding buffer, 25° C.
Procedure: The initial dissolution of lobeline in water was followed by a 1:1 dilution of this stock solution in the appropriate HEPES buffer system, incubation at the prescribed temperature, and HPLC assay of each epimer and potential degradants over 2 hour incubation.
After 2 hours, the 25° C.

[2] = Lobeline conversion to epimer in the buffer system used at 37° C. in the VMAT2 uptake study (HPLC); assay type: physicochemical; settings: for Lobeline %: VMAT2 uptake buffer, 37° C.
[3] = Pharmacokinetics of lobeline and epimer in human subjects after sublingual lobeline administration (7.5, 15, 30 mg); settings: for AUCext (percent of AUC(0-∞) determined by extrapolation) / Tlast (time of last measurable plasma concentration) / λz (terminal exponential rate constant): lobeline in plasma; for AUCext (percent of AUC(0-∞) determined by extrapolation) / Tlast (time of last measurable plasma concentration) / λz (terminal exponential rate constant) / CL/F (extravascular clearance): individual human subjects; for CL/F (extravascular clearance): lobeline
Description: The pharmacokinetics of lobeline and lobeline epimer were examined in eight human subjects (Sub) after sublingual lobeline administration.

clinical = settings: human, in vivo
Procedure: Three consecutive doses of lobeline (either 30, 45 and 45 mg in the first study group, or 60, 60 and 60 mg in the second group) were administered to human volunteers at 0800, 1200 and 1600 over two full inpatient days. The pharmacokinetics of lobeline and epimer were then assessed in each subject. […] A crude index of accumulation (non-steady state) was obtained by dividing the sixth dose trough concentration by that observed for the fifth dose.

[4] = sublingual lobeline 30.0 mg, listed as lobeline

In the case of `CN1[C@@H](CC(=O)c2ccccc2)CCC[C@H]1C[C@H](O)c1ccccc1` [Lobeline, 2-[6S-(2S-hydroxy-2-phenyl-ethyl)-1-methyl-piperidin-2R-yl]-1-phenyl-ethanone], the Lobeline % ([1]; T0, sample age 0:01) is reported as 98.5%, the Lobeline % ([1]; T5, sample age 0:06) is reported as 97.8% and the Lobeline % ([1]; T10, sample age 0:10) is reported as 96.7%. The Lobeline % ([1]; T15, sample age 0:15) was 95.5%, the Lobeline % ([1]; T20, sample age 0:20) was 94.7% and the Lobeline % ([1]; T25, sample age 0:25) was 94.1%. The Lobeline % ([1]; T30, sample age 0:31) was 92.8%, the Lobeline % ([1]; T35, sample age 0:35) was 92.7% and the Lobeline % ([1]; T40, sample age 0:40) was 91.3%. The Lobeline % ([1]; T45, sample age 0:45) was 90.7%, the Lobeline % ([1]; T50, sample age 0:50) was 90.1% and the Lobeline % ([1]; T55, sample age 0:55) was 89.9%. It also gave a Lobeline % ([1]; T60, sample age 1:00) of 89.1%, a Lobeline % ([1]; T70, sample age 1:10) of 87.8% and a Lobeline % ([1]; T80, sample age 1:20) of 86.6%. It also gave a Lobeline % ([1]; T90, sample age 1:31) of 85.5%, a Lobeline % ([1]; T100, sample age 1:40) of 84.5% and a Lobeline % ([1]; T110, sample age 1:50) of 83.5%. The Lobeline % ([1]; T120, sample age 2:01) was 82.7%, the “component content of solution” value ([2]; 37° C. uptake buffer with ATP-Mg2+ cofactor reduced from 2 mM to 0.4 mM, after 2 hours, with impurity) was 66% and the “final component concentration (as a function of the area under the curve)” value ([2]; VMAT2 uptake buffer (HEPES), 2 hour incubation at 37° C.) was 69%. It also gave a Lobeline % ([2]; T0, sample age 0:01) of 98.2%, a Lobeline % ([2]; T5, sample age 0:05) of 96.7% and a Lobeline % ([2]; T10, sample age 0:10) of 94.4%. The Lobeline % ([2]; T15, sample age 0:15) was 91.2%, the Lobeline % ([2]; T25, sample age 0:25) was 86.5% and the Lobeline % ([2]; T30, sample age 0:30) was 84.7%. For the same compound, the Lobeline % ([2]; T35, sample age 0:35) was 83.4%, the Lobeline % ([2]; T40, sample age 0:40) was 81.8% and the Lobeline % ([2]; T45, sample age 0:45) was 80.6%. The Lobeline % ([2]; T50, sample age 0:50) was 79.3%, the Lobeline % ([2]; T55, sample age 0:55) was 78.5% and the Lobeline % ([2]; T60, sample age 1:00) was 77.2%. For the same compound, the Lobeline % ([2]; T70, sample age 1:10) was 75.0%, the Lobeline % ([2]; T80, sample age 1:20) was 73.1% and the Lobeline % ([2]; T90, sample age 1:31) was 72.2%. For the same compound, the Lobeline % ([2]; T100, sample age 1:40) was 71.1%, the Lobeline % ([2]; T110, sample age 1:50) was 69.6% and the Lobeline % ([2]; T120, sample age 2:00) was 68.5%. For the same compound, the “dose linearity of Cmax and CL/F” value ([3]; dose range from 7.5 to 30 mg, sublingual, human) was “Linear kinetics”, the “Combined urinary excretion of lobeline and epimer” value ([3]; human, in vivo) was ≤ 0.5% and the AUC(0-inf) ([3]; human, in vivo, 30 mg) was 8.02 ng·h/mL. The half-life ([3]; human, in vivo, 30 mg, Terminal exponential phase half-life (T1/2), average) was ~2.4 h, the half-life ([3]; human, in vivo, 30 mg, Terminal exponential phase half-lives (T1/2 values), range) was 1 to 5 h and the Tmax ([3]; human, in vivo, 30 mg, Tmax values, range) was 0.25 to 3 h. The Tmax ([3]; human, in vivo, 30 mg, Tmax, average) was 1.4 h, the half-life ([3]; human, in vivo, mean T1/2 values, human subjects, sublingual lobeline) was ~2 h and the “equilibrium ratio of lobeline to epimer” value ([3]; humans) was 1 to 10. For the same compound, the “AUCext (percent of AUC(0-∞) determined by extrapolation)” value ([3]; sublingual lobeline 7.50 mg) was 39.3% and 21.5% and 38.5% and 19.2% and 18.0% and 12.3% and 13.6% and 29.5%, the “Tlast (time of last measurable plasma concentration)” value (“Tlast” for short) ([3]; sublingual lobeline 7.50 mg) was 3.03 hr and 4.00 hr (3×) and 4.05 hr and 6.00 hr (2×) and 12.00 hr and the “λz (terminal exponential rate constant)” value ([3]; sublingual lobeline 7.50 mg) was 0.401 h⁻¹ and 0.403 h⁻¹ and 0.195 h⁻¹ and 0.295 h⁻¹ and 0.277 h⁻¹ and 0.183 h⁻¹ and 0.555 h⁻¹ and 0.367 h⁻¹. For the same compound, the “AUCext (percent of AUC(0-∞) determined by extrapolation)” value ([3]; sublingual lobeline 15.0 mg) was 16.1% and 14.1% and 6.24% and 6.52% and 14.5% and 12.7% and 18.7% and 18.1%, the “Tlast” value ([3]; sublingual lobeline 15.0 mg) was 4.17 hr and 4.00 hr and 6.00 hr (3×) and 8.00 hr (2×) and 11.00 hr and the “λz (terminal exponential rate constant)” value ([3]; sublingual lobeline 15.0 mg) was 0.513 h⁻¹ and 0.544 h⁻¹ and 0.573 h⁻¹ and 0.341 h⁻¹ and 0.322 h⁻¹ and 0.206 h⁻¹ and 0.185 h⁻¹ and 0.321 h⁻¹. For the same compound, the “Tlast” value ([3]; sublingual lobeline 30.0 mg) was 8.02 h, the “AUCext (percent of AUC(0-∞) determined by extrapolation)” value [3, 4] was 7.44% and 6.59% and 5.81% and 5.16% and 20.3% and 3.50% and 8.86% and 5.87% and the “Tlast” value [3, 4] was 4.00 h and 6.05 h and 12.17 h and 8.03 h and 22.75 h and 6.00 h and 8.00 h. For the same compound, the “λz (terminal exponential rate constant)” value [3, 4] was 0.878 h⁻¹ and 0.469 h⁻¹ and 0.314 h⁻¹ and 0.254 h⁻¹ and 0.149 h⁻¹ and 0.151 h⁻¹ and 0.376 h⁻¹ and 0.380 h⁻¹, the “CL/F (extravascular clearance)” value ([3]; sublingual lobeline 7.50 mg) was 2328 mL/min/kg and 844 mL/min/kg and 1116 mL/min/kg and 623 mL/min/kg and 792 mL/min/kg and 179 mL/min/kg and 1502 mL/min/kg and 1051 mL/min/kg and the “CL/F (extravascular clearance)” value ([3]; sublingual lobeline 15.0 mg) was 1995 mL/min/kg and 866 mL/min/kg and 1364 mL/min/kg and 550 mL/min/kg and 1183 mL/min/kg and 188 mL/min/kg and 1194 mL/min/kg and 1068 mL/min/kg. The “CL/F (extravascular clearance)” value ([3]; sublingual lobeline 30.0 mg) was 1809 mL/min/kg and 1169 mL/min/kg and 1269 mL/min/kg and 572 mL/min/kg and 1736 mL/min/kg and 162 mL/min/kg and 2340 mL/min/kg and 857 mL/min/kg, the half-life (clinical) was 3.91 h and the “time at which geometric mean plasma concentration peaked” value (clinical) was 1.26 h.
